Consider two substances from patent publication US6127339A, “Peptide for binding thereto a low density lipoprotein” (Asahi Kasei Kogyo Kabushiki Kaisha, priority 1995, dated 2000).

No end group written: not given here.

Test [1] concerns LDL. Put plainly: BIAcore affinity of immobilized peptide to LDL in plasma. The following applies: plasma containing 1 mg/ml LDL versus LDL-free plasma; based on the immobilized amount of RRWFW-CONH2 as standard. Type of test: binding. The source says: (§1) Further, the binding ability (affinity) of the adsorbent for an LDL can also be determined by using BIAcore (manufactured and sold by Pharmacia Biosensor AB, Sweden), in accordance with the instructions given in a manual attached to BIAcore. Specifically, the binding ability of the adsorbent for an LDL can also be determined by a method in which the peptide is immobilized on a sensor chip of the BIAcore, and a solution containing LDL, such as plasma, is flowed over the sensor chip.
Twenty-seven different peptides and four different comparative peptides (which are all shown in Table 12, wherein for Example 12, Sample Nos. 12-15 are SEQ ID NOS:12-15, respectively) were prepared in substantially the same manner as in Example 7. Each of the obtained peptides was individually dissolved in a 10 mM acetate buffer (pH: 5.5) to thereby obtain peptide solutions each having a peptide concentration of […]. […]
The affinity of the peptide to the LDL in plasma was measured using the above-mentioned BIAcore (provided with the sensor chip having the peptide immobilized thereon) as follows. […]
On the technique in general: SPR reads the build-up and loss of mass on a sensor chip optically.

The test system of test [2] is LDL. Put plainly: BIAcore affinity of immobilized peptide to LDL in HBS buffer. The class given is binding. The following applies: 6-minute injection, based on the immobilized amount of RRWFW-CONH2 as standard.
From the text: as §1
Twenty-six different peptides and four different comparative peptides (which are all shown in Table 11; wherein for Example 11, Sample Nos. 1, 4 and 5-26 are SEQ ID NOS:35, 89 and 36-57, respectively, and wherein for Comparative Example 8, Sample Nos. 1, 2, 3 and 4 are SEQ ID NOS:86, 87, 90 and 88, respectively) were prepared in substantially the same manner as in Example 7. […]
The affinity of the peptide to the LDL contained in HBS buffer was measured using the above-mentioned BIAcore (provided with the sensor chip having the peptide immobilized thereon) as follows. […] However, since the amounts of the peptides immobilized on the sensor chip vary depending on the types of the peptides, the amount of a peptide of RRWFW-CONH2 immobilized on the sensor chip was taken as a standard amount and the affinities of various tested peptides were determined, based on the above standard amount.

As to EMEEV-CONH2 (EMEEV-NH2), the “Affinity to LDL (RU)” value in test [1] came to 270 RU; in test [2], 730 RU.

Turning to DPSVY-CONH2 (DPSVY-NH2), the “Affinity to LDL (RU)” value in test [1] is given as 250 RU; in test [2], 310 RU.
